Broadly, the IC50 is the concentration that gives 50% inhibition.

Structures are written as SMILES. Where two headings read alike, the source gives them in different places. Positions of bridges follow the written chain, without caps; N, C: chain ends. Non-standard residues stand in square brackets, D forms with d. Residues, ends and D or L forms follow the SMILES beside them. ξ: configuration not given here. *: point of attachment. Bip = N[C@@H](Cc1ccc(-c2ccccc2)cc1)C(=O)O; Phe(3-CN) = N#Cc1cccc(C[C@H](N)C(=O)O)c1; Phe(3-OMe) = COc1cccc(C[C@H](N)C(=O)O)c1; Phe(2-Cl) = N[C@@H](Cc1ccccc1Cl)C(=O)O; NMeY = CN[C@@H](Cc1ccc(O)cc1)C(=O)O; NMeF = CN[C@@H](Cc1ccccc1)C(=O)O; Cha = N[C@@H](CC1CCCCC1)C(=O)O; dOrn = NCCC[C@@H](N)C(=O)O; Carboxymethyl = O=C(O)C*; NMeA = CN[C@@H](C)C(=O)O; Orn = NCCC[C@H](N)C(=O)O; Dab = NCC[C@H](N)C(=O)O; Dap = NC[C@H](N)C(=O)O; ξV = CC(C)C(N)C(=O)O; Sar = CNCC(=O)O

Consider 15 compounds from patent US20240360178A1, “MACROCYCLIC IMMUNOMODULATORS” (Bristol-Myers Squibb Company, priority 2021, published 2024).

The target in the assay is T1, human PD-1 (Jurkat-PD-1 cells) / PE-labeled human PD-L1-Ig (Homo sapiens, UniProt Q15116).
T1 construct: expressed in transfected cells; host or cells: Jurkat cell line over-expressing human PD-1
In words: Jurkat-PD-1 Cell Binding High-Content Screening Assay (CBA); Jurkat hPD1-PDL1 assay. As to conditions: PE-labeled PD-L1-Ig 20 nM final, compound incubated 2 hours at 37° C. The gist of the method:
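Binding of phycoerythrin-conjugated PD-L1-Ig (20 nM final) to PD-1-overexpressing Jurkat cells was read by high-content imaging. Cells in DMEM/10% FCS were exposed to compound for 2 hours at 37° C before labeled ligand was added.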

Where [1] appears, read: Jurkat cell line over-expressing human PD-1, read-out: Jurkat HPD1-PDL1 IC50.

T1 sequence (Q15116 25-288): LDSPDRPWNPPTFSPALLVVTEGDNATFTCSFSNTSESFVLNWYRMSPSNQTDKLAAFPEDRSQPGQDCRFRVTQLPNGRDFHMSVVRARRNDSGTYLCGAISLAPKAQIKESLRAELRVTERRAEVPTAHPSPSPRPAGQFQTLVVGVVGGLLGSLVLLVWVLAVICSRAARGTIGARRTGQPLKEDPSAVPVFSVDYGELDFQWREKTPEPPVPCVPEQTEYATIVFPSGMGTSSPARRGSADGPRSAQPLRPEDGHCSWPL

With `CC(C)C[C@@H]1NC(=O)[C@H](Cc2c[nH]c3ccccc23)NC(=O)[C@H](CC(=O)O)NC(=O)[C@H](Cc2ccc(O)cc2)NC(=O)[C@H](Cc2ccccc2)NC(=O)CSC[C@@H](C(=O)NCC(N)=O)NC(=O)[C@H](CCCNC(=N)N)NC(=O)[C@H](C(C)C)NC(=O)[C@H](CC(C)C)NC(=O)[C@H](CC(N)=O)NC(=O)CN(C)C(=O)[C@H](C)N(C)C(=O)[C@H](C(C)C)NC(=O)[C@H](Cc2ccc(-c3ccccc3)cc2)NC1=O` [Example 1226] ({CH2CO}-FYDWL[Bip]V[NMeA][Sar]NLVRCG-NH2; thioether N-14), the IC50 under setting [1] was 890 nM.
`CC(C)C[C@@H]1NC(=O)[C@H](Cc2c[nH]c3ccccc23)NC(=O)[C@H](CC(=O)O)NC(=O)[C@H](Cc2ccc(O)cc2)NC(=O)[C@H](Cc2ccccc2)NC(=O)CSC[C@@H](C(=O)NCC(N)=O)NC(=O)[C@H](CO)NC(=O)[C@H](C(C)C)NC(=O)[C@H](CC(C)C)NC(=O)[C@H](CC(N)=O)NC(=O)[C@H]2CCCN2C(=O)[C@H](CN)NC(=O)[C@H](C(C)C)NC(=O)[C@H](Cc2ccc(-c3ccccc3)cc2)NC1=O` [Example 1406] ({CH2CO}-FYDWL[Bip]V[Dap][dP]NLVSCG-NH2; thioether N-14): where the note is “Jurkat HPD1-PDL1 IC50, Jurkat cell line over-expressing human PD-1”, the IC50 amounted to 350 nM.
Consider `CC(C)C[C@@H]1NC(=O)[C@H](Cc2ccccc2Cl)NC(=O)[C@H](CC(=O)O)NC(=O)[C@H](Cc2ccc(O)cc2)NC(=O)[C@H](Cc2ccccc2)NC(=O)CSC[C@@H](C(=O)N[C@@H](C)C(N)=O)NC(=O)[C@H](CO)NC(=O)[C@H](C(C)C)NC(=O)[C@H](CC(C)C)NC(=O)[C@H](CC(N)=O)NC(=O)CN(C)C(=O)[C@H](C)N(C)C(=O)[C@H](C(C)C)NC(=O)[C@H](Cc2ccc(-c3ccccc3)cc2)NC1=O` [Example 1170] ({CH2CO}-FYD[Phe(2-Cl)]L[Bip]V[NMeA][Sar]NLVSCA-NH2; thioether N-14), for which the half-inhibitory concentration (IC50) under setting [1] worked out at 940 nM.
For the compound `CC(C)C[C@@H]1NC(=O)[C@H](CCCN)NC(=O)[C@H](Cc2ccccc2)N(C)C(=O)[C@H](C)N(C)C(=O)[C@H](CCC(=O)O)NC(=O)[C@H](Cc2ccc(-c3ccccc3)cc2)NC(=O)[C@H](C(C)C)NC(=O)[C@H](Cc2c[nH]c3ccccc23)NC(=O)[C@H](CC(=O)O)NC(=O)[C@H](Cc2ccc(O)cc2)NC(=O)[C@H](Cc2ccccc2)NC(=O)CSC[C@@H](C(=O)N[C@@H](CCC(=O)O)C(N)=O)NC(=O)[C@H]([C@@H](C)O)NC(=O)[C@H](C(C)C)NC1=O` [Example 1350] ({CH2CO}-FYDWV[Bip]E[NMeA][NMeF][Orn]LVTCE-NH2; thioether N-14), the IC50 under setting [1] stood at 210 nM.
As to `CC(C)C[C@@H]1NC(=O)[C@H](CCCNC(=N)N)NC(=O)[C@H](Cc2ccccc2)N(C)C(=O)[C@H](C)N(C)C(=O)[C@H](CCCNC(=N)N)NC(=O)[C@H](Cc2ccc(-c3ccccc3)cc2)NC(=O)[C@H](C(C)C)NC(=O)[C@H](Cc2c[nH]c3ccccc23)NC(=O)[C@H](CC(=O)O)NC(=O)[C@H](Cc2ccc(O)cc2)NC(=O)[C@H](Cc2ccccc2)NC(=O)CSC[C@@H](C(=O)NCC(N)=O)NC(=O)[C@H](CN)NC(=O)[C@H](C(C)C)NC1=O` [Example 1330] ({CH2CO}-FYDWV[Bip]R[NMeA][NMeF]RLV[Dap]CG-NH2; thioether N-14), under setting [1], the IC50 is 390 nM.
On the same count and under the same terms, the figure for `CC(C)C1NC(=O)[C@H](Cc2c[nH]c3ccccc23)NC(=O)[C@H](CC(=O)O)NC(=O)[C@H](Cc2ccc(OCC(=O)O)cc2)NC(=O)[C@H](CN)NC(=O)CSC[C@@H](C(=O)N[C@@H](C)C(N)=O)NC(=O)[C@H]([C@@H](C)O)NC(=O)[C@H](C(C)C)NC(=O)[C@H](CC2CCCCC2)NC(=O)[C@H](CCN)NC(=O)[C@H](Cc2ccccc2)N(C)C(=O)[C@H](CCCN)NC(=O)[C@H](CCC(=O)O)NC(=O)[C@H](Cc2ccc(-c3ccccc3)cc2)NC1=O` (stereo partly drawn) [Example 1442] ({CH2CO}-[Dap]Y(Carboxymethyl)DW[ξV][Bip]E[Orn][NMeF][Dab][Cha]VTCA-NH2; thioether N-14) is 70 nM; for `CC(C)C[C@@H]1NC(=O)[C@H](Cc2c[nH]c3ccccc23)NC(=O)[C@H](CC(=O)O)NC(=O)[C@H](Cc2ccc(O)cc2)NC(=O)[C@H](Cc2ccccc2)NC(=O)CSC[C@@H](C(=O)N[C@@H](C)C(N)=O)NC(=O)[C@H](CO)NC(=O)[C@H](C(C)C)NC(=O)[C@H](CC(C)C)NC(=O)[C@H](CCCNC(=N)N)NC(=O)[C@H](Cc2ccccc2)N(C)C(=O)[C@H](C)N(C)C(=O)[C@H](CCCNC(=N)N)NC(=O)[C@H](Cc2ccc(-c3ccccc3)cc2)NC1=O` [Example 1078] ({CH2CO}-FYDWL[Bip]R[NMeA][NMeF]RLVSCA-NH2; thioether N-14) it is 220 nM.
Regarding `CC(C)C[C@@H]1NC(=O)[C@H](CCCNC(=N)N)NC(=O)[C@H](Cc2ccccc2)N(C)C(=O)[C@H](C)N(C)C(=O)[C@H](CCCNC(=N)N)NC(=O)[C@H](Cc2ccc(-c3ccccc3)cc2)NC(=O)[C@H](C(C)C)NC(=O)[C@H](Cc2c[nH]c3ccccc23)NC(=O)[C@H](CC(=O)O)NC(=O)[C@H](Cc2ccc(O)cc2)NC(=O)[C@H](CCCCN)NC(=O)CSC[C@@H](C(=O)NCC(N)=O)NC(=O)[C@H](CO)NC(=O)[C@H](C(C)C)NC1=O` [Example 1211] ({CH2CO}-KYDWV[Bip]R[NMeA][NMeF]RLVSCG-NH2; thioether N-14), under setting [1], the IC50 stood at 650 nM.
For `CC(C)C[C@@H]1NC(=O)[C@H](Cc2c[nH]c3ccccc23)NC(=O)[C@H](CC(=O)O)NC(=O)[C@H](Cc2ccc(O)cc2)NC(=O)[C@H](Cc2ccccc2)NC(=O)CSC[C@@H](C(=O)N[C@@H](C)C(N)=O)NC(=O)[C@H](CO)NC(=O)[C@H](C(C)C)NC(=O)[C@H](CC(C)C)NC(=O)[C@H](CC(N)=O)NC(=O)CN(C)C(=O)[C@@H](CCCN)NC(=O)[C@H](C(C)C)NC(=O)[C@H](Cc2ccc(-c3ccccc3)cc2)NC1=O` [Example 1198] ({CH2CO}-FYDWL[Bip]V[dOrn][Sar]NLVSCA-NH2; thioether N-14), under setting [1], the IC50 turned out to be 760 nM.
For `CC(C)C[C@@H]1NC(=O)[C@H](CCCNC(=N)N)NC(=O)[C@H](Cc2ccccc2)N(C)C(=O)[C@H](C)N(C)C(=O)[C@H](CCCNC(=N)N)NC(=O)[C@H](Cc2ccc(-c3ccccc3)cc2)NC(=O)[C@H](C(C)C)NC(=O)[C@H](Cc2c[nH]c3ccccc23)NC(=O)[C@H](CC(=O)O)NC(=O)[C@H](Cc2ccc(O)cc2)NC(=O)[C@H](CC(N)=O)NC(=O)CSC[C@@H](C(=O)N[C@@H](C)C(N)=O)NC(=O)[C@H](CCCN)NC(=O)[C@H](C(C)C)NC1=O` [Example 1373] ({CH2CO}-NYDWV[Bip]R[NMeA][NMeF]RLV[Orn]CA-NH2; thioether N-14), the IC50 under setting [1] amounted to 180 nM.
As to `CC(C)C[C@@H]1NC(=O)[C@H](CCCNC(=N)N)NC(=O)[C@H](Cc2ccccc2)N(C)C(=O)[C@H](C)N(C)C(=O)[C@H](CCCN)NC(=O)[C@H](Cc2ccc(-c3ccccc3)cc2)NC(=O)[C@H](C(C)C)NC(=O)[C@H](Cc2c[nH]c3ccccc23)NC(=O)[C@H](CC(=O)O)NC(=O)[C@H](Cc2ccc(O)cc2)NC(=O)[C@H](Cc2cnc[nH]2)NC(=O)CSC[C@@H](C(=O)NCC(N)=O)NC(=O)[C@H](CO)NC(=O)[C@H](C(C)C)NC1=O` [Example 1292] ({CH2CO}-HYDWV[Bip][Orn][NMeA][NMeF]RLVSCG-NH2; thioether N-14), under setting [1], the half-inhibitory concentration (IC50) was 90 nM.
For `CC(C)C[C@@H]1NC(=O)[C@H](Cc2c[nH]c3ccccc23)NC(=O)[C@H](CC(=O)O)NC(=O)[C@H](Cc2ccc(O)cc2)NC(=O)[C@H](Cc2ccccc2)NC(=O)CSC[C@@H](C(=O)N[C@@H](C)C(N)=O)NC(=O)[C@H]([C@@H](C)O)NC(=O)[C@H](C(C)C)NC(=O)[C@H](CC(C)C)NC(=O)[C@H](CCN)NC(=O)[C@H]2CCCN2C(=O)[C@H](CCCN)NC(=O)[C@H](C(C)C)NC(=O)[C@H](Cc2ccc(-c3ccccc3)cc2)NC1=O` [Example 1422] ({CH2CO}-FYDWL[Bip]V[Orn][dP][Dab]LVTCA-NH2; thioether N-14), the half-maximal inhibitory concentration (IC50) under setting [1] worked out at 140 nM.
For `COc1cccc(C[C@@H]2NC(=O)[C@H](CC(=O)O)NC(=O)[C@H](Cc3cccc(C#N)c3)NC(=O)[C@H](CN)NC(=O)CSC[C@@H](C(=O)N[C@@H](C)C(N)=O)NC(=O)[C@H](CO)NC(=O)[C@H](C(C)C)NC(=O)[C@H](CC(C)C)NC(=O)[C@H](CC(N)=O)NC(=O)[C@H]3CCCN3C(=O)[C@H](C)N(C)C(=O)[C@H](C(C)C)NC(=O)[C@H](Cc3ccc(-c4ccccc4)cc3)NC(=O)[C@H](CC(C)C)NC2=O)c1` [Example 1393] ({CH2CO}-[Dap][Phe(3-CN)]D[Phe(3-OMe)]L[Bip]V[NMeA][dP]NLVSCA-NH2; thioether N-14), the IC50 under setting [1] amounted to 20 nM.
Same read-out and setting: in the case of `CC(C)C1NC(=O)[C@H](Cc2c[nH]c3ccccc23)NC(=O)[C@H](CC(=O)O)NC(=O)[C@H](Cc2ccc(OCC(=O)O)cc2)NC(=O)[C@H](CN)NC(=O)CSC[C@@H](C(=O)N[C@@H](C)C(N)=O)NC(=O)[C@H]([C@@H](C)O)NC(=O)[C@H](C(C)C)NC(=O)[C@H](CC2CCCCC2)NC(=O)[C@H](CCN)NC(=O)[C@H](Cc2ccc(O)cc2)N(C)C(=O)[C@H](CCCN)NC(=O)[C@H](CCC(=O)O)NC(=O)[C@H](Cc2ccc(-c3ccccc3)cc2)NC1=O` (stereo partly drawn) [Example 1453] ({CH2CO}-[Dap]Y(Carboxymethyl)DW[ξV][Bip]E[Orn][NMeY][Dab][Cha]VTCA-NH2; thioether N-14) it was 320 nM; in that of `CC(C)C[C@@H]1NC(=O)[C@H](CCCN)NC(=O)[C@H](Cc2ccccc2)N(C)C(=O)[C@H](C)N(C)C(=O)[C@H](CCCNC(=N)N)NC(=O)[C@H](Cc2ccc(-c3ccccc3)cc2)NC(=O)[C@H](C(C)C)NC(=O)[C@H](Cc2c[nH]c3ccccc23)NC(=O)[C@H](CC(=O)O)NC(=O)[C@H](Cc2ccc(O)cc2)NC(=O)[C@H](Cc2ccccc2)NC(=O)CSC[C@@H](C(=O)N[C@@H](C)C(N)=O)NC(=O)[C@H]([C@@H](C)O)NC(=O)[C@H](C(C)C)NC1=O` [Example 1345] ({CH2CO}-FYDWV[Bip]R[NMeA][NMeF][Orn]LVTCA-NH2; thioether N-14), 120 nM.
